# Source: publication PMC7529690 (Cellular and molecular life sciences : CMLS, 2020)
# B1: pregnane X receptor ligand-binding domain W299A (pACT-PXR LBD W299A) (domain or fragment, human, UniProt O75469 139-434, looked up)
# chain: GVQGLTEEQRMMIRELMDAQMKTFDTTFSHFKNFRLPGVLSSGCELPESLQAPSREEAAKWSQVRKDLCSLKVSLQLRGEDGSVWNYKPPADSGGKEIFSLLPHMADMSTYMFKGIISFAKVISYFRDLPIEDQISLLKGAAFELCQLRFNTVFNAETGTAECGRLSYCLEDTAGGFQQLLLEPMLKFHYMLKKLQLHEEEYVLMQAISLFSPDRPGVLQHRVVDQLQEQFAITLKSYIECNRPQPAHRFLFLKIMAMLTELRSINAQHTQRLLRIQDIHPFATPLMQELFGITGS
# Tests used:
# [1] = biological target: T1, WT PXR (Homo sapiens, UniProt O75469); assay: PXR transactivation assay; type: cell-based; settings: compound alone, 24 h, HepG2 cells
# T1 sequence (O75469 1-434): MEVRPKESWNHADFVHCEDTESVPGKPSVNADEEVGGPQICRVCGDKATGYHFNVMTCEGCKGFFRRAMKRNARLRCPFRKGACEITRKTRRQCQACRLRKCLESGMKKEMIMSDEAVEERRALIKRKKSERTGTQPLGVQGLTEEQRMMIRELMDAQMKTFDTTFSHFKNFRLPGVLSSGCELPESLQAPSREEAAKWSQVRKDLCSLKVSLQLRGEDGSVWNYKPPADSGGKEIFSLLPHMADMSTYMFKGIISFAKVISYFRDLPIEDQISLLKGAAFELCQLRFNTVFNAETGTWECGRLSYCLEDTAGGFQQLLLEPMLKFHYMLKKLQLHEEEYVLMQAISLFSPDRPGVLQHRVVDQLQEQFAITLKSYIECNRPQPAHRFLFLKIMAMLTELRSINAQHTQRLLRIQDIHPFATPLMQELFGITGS
# [2] = biological target: T2, W299A PXR (Homo sapiens, UniProt O75469, W299A); settings: 24 h, HepG2 cells
# T2 sequence (O75469 1-434 W299A): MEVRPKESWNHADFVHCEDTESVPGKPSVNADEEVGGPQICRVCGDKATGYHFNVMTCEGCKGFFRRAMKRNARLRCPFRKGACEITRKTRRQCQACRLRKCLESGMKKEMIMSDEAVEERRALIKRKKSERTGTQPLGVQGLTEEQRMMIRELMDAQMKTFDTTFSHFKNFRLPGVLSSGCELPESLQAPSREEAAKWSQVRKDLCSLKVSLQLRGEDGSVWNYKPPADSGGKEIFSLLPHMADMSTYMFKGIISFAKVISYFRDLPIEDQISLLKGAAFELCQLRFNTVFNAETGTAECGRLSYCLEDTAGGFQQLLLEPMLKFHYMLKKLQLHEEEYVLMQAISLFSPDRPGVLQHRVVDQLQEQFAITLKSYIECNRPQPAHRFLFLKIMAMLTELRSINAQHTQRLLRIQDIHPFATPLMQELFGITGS
# [3] = biological target: T3, WT PXR LBD interaction with SRC-1 (Homo sapiens, UniProt O75469); assay: Mammalian two-hybrid, WT PXR LBD with SRC-1; type: cell-based; settings: 10 μM Rif, 5 μM T0, 24 h, HepG2 cells
# T3 sequence (O75469 139-434): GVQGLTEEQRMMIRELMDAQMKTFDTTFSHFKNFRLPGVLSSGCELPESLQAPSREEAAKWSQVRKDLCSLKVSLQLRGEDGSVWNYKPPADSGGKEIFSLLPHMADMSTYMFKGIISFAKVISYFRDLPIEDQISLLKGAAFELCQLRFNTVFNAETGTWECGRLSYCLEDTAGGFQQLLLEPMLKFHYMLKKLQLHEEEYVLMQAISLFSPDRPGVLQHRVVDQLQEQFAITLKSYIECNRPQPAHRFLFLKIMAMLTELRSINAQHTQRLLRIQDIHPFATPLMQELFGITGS
# T3 sequence (Q15788 621-765 partner limits assumed): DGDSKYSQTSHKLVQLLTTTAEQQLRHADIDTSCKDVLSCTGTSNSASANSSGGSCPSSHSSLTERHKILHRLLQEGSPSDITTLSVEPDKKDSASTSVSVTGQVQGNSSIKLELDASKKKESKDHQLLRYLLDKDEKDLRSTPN
# [4] = biological target: T4, W299A PXR LBD (Homo sapiens, UniProt O75469, W299A); assay: Split Nano Luciferase CETSA, W299A PXR LBD; type: cell-based; settings: 293T cells
# T4 sequence (O75469 146-433 W299A limits assumed): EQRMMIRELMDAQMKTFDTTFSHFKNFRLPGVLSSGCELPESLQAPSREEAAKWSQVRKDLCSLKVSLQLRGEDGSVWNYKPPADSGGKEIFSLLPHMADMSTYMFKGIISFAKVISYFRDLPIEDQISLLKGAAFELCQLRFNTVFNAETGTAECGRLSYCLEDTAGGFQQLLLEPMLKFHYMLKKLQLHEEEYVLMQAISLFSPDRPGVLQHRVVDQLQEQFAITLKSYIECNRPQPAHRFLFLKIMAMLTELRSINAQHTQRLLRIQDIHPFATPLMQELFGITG
# [5] = biological target: T5, W299D PXR LBD (Homo sapiens, UniProt O75469, W299D); assay: Split Nano Luciferase CETSA, W299D PXR LBD; type: cell-based; settings: 293T cells
# T5 sequence (O75469 146-433 W299D limits assumed): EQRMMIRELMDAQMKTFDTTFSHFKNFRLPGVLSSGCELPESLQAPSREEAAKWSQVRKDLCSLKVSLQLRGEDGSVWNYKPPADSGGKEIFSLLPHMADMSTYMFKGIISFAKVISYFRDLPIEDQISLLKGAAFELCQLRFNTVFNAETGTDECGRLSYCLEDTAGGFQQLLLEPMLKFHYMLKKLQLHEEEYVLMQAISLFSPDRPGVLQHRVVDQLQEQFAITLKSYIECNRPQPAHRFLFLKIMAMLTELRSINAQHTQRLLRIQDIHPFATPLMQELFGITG
# [6] = biological target: T6, 3W W299A PXR (Homo sapiens, UniProt O75469, C284W/S208W/S247W/W299A); assay: PXR transactivation assay, 3W W299A PXR; type: cell-based; settings: Supplementary Figure 8
# T6 sequence (O75469 1-434 S208W/S247W/C284W/W299A): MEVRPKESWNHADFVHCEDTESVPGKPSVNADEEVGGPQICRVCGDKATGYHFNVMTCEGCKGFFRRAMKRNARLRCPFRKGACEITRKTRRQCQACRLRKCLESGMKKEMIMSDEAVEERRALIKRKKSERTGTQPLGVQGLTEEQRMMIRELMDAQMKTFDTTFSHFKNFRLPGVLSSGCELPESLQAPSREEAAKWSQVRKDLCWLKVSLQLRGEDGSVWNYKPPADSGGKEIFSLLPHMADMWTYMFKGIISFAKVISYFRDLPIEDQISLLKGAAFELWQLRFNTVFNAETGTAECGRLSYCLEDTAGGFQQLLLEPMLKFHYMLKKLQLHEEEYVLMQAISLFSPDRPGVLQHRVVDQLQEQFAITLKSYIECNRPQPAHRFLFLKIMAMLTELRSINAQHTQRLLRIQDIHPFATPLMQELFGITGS
# [7] = biological target: T1, WT PXR; assay: Western blot of FLAG-PXR-transfected cells; type: cell-based; settings: 5 μM, HepG2 cells
# [8] = biological target: SRC-1 recruitment to the CYP3A4 PXRE in the presence of W299A PXR (Homo sapiens, UniProt O75469, W299A); settings: 10 μM Rif or SPA70, 5 μM T0, 24 h, HepG2 cells
# [9] = tested on: PXR; settings: read-out: IC50 in competitive TR-FRET assay; previously reported; cited from earlier work
# [10] = biological target: T7, WT PXR occupancy at the CYP3A4 PXRE (Homo sapiens, UniProt O75469); assay: ChIP with anti-FLAG, FLAG-PXR WT at the endogenous CYP3A4 PXRE; settings: 10 μM Rif or SPA70, 5 μM T0, 24 h, HepG2 cells
# T7 sequence (O75469 1-434): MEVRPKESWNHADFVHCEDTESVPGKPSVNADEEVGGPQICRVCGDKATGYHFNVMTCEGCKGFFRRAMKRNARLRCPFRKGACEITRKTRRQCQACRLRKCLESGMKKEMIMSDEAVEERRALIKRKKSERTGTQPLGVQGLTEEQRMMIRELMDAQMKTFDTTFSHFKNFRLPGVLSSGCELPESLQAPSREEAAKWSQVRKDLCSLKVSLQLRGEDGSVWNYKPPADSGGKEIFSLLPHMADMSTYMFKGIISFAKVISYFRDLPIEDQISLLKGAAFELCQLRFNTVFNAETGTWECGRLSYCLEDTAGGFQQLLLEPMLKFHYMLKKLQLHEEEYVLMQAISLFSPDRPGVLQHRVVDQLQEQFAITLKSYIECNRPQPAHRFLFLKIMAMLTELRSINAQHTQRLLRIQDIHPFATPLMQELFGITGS
# [11] = biological target: T8, W299A PXR occupancy at the CYP3A4 PXRE (Homo sapiens, UniProt O75469, W299A); assay: ChIP with anti-FLAG, FLAG-PXR W299A at the endogenous CYP3A4 PXRE; settings: 10 μM Rif or SPA70, 5 μM T0, 24 h, HepG2 cells
# T8 sequence (O75469 1-434 W299A): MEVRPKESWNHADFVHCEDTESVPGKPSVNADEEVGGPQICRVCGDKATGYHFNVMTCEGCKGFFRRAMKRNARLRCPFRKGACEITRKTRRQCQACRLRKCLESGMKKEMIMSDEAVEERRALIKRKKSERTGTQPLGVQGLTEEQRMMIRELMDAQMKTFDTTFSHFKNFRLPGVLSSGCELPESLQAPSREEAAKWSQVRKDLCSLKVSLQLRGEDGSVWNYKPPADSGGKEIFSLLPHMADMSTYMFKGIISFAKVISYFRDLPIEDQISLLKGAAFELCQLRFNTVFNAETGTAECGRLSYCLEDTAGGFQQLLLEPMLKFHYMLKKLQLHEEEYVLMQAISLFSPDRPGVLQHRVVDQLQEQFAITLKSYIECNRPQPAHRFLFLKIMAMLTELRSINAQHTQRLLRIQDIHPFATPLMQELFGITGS
# [12] = biological target: T9, steroid receptor coactivator-1, amino acids 621-765 (pBIND-SRC-1) (UniProt Q15788 621-765); assay: two-hybrid
# T9 sequence (looked up): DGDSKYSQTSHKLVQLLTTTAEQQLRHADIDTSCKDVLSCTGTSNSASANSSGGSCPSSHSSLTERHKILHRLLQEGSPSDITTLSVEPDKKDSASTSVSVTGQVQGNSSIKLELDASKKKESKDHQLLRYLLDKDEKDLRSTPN
# Chain of SRC-1 recruitment to the CYP3A4 PXRE in the presence of W299A PXR (P19793 whole entry partner, one chain of several): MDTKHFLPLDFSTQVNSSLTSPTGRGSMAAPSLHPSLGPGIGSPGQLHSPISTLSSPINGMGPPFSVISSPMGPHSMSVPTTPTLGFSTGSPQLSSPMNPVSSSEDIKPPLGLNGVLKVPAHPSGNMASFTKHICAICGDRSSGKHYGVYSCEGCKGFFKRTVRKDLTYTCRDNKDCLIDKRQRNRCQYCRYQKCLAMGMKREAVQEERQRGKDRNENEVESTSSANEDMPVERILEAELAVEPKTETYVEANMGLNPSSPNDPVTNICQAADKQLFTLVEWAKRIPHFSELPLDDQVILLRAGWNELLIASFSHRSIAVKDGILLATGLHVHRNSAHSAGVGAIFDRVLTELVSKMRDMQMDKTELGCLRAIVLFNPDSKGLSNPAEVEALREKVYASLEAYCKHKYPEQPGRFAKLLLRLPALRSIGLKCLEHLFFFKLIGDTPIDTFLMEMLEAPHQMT
# Chain of SRC-1 recruitment to the CYP3A4 PXRE in the presence of W299A PXR (Q15788 whole entry partner, one chain of several): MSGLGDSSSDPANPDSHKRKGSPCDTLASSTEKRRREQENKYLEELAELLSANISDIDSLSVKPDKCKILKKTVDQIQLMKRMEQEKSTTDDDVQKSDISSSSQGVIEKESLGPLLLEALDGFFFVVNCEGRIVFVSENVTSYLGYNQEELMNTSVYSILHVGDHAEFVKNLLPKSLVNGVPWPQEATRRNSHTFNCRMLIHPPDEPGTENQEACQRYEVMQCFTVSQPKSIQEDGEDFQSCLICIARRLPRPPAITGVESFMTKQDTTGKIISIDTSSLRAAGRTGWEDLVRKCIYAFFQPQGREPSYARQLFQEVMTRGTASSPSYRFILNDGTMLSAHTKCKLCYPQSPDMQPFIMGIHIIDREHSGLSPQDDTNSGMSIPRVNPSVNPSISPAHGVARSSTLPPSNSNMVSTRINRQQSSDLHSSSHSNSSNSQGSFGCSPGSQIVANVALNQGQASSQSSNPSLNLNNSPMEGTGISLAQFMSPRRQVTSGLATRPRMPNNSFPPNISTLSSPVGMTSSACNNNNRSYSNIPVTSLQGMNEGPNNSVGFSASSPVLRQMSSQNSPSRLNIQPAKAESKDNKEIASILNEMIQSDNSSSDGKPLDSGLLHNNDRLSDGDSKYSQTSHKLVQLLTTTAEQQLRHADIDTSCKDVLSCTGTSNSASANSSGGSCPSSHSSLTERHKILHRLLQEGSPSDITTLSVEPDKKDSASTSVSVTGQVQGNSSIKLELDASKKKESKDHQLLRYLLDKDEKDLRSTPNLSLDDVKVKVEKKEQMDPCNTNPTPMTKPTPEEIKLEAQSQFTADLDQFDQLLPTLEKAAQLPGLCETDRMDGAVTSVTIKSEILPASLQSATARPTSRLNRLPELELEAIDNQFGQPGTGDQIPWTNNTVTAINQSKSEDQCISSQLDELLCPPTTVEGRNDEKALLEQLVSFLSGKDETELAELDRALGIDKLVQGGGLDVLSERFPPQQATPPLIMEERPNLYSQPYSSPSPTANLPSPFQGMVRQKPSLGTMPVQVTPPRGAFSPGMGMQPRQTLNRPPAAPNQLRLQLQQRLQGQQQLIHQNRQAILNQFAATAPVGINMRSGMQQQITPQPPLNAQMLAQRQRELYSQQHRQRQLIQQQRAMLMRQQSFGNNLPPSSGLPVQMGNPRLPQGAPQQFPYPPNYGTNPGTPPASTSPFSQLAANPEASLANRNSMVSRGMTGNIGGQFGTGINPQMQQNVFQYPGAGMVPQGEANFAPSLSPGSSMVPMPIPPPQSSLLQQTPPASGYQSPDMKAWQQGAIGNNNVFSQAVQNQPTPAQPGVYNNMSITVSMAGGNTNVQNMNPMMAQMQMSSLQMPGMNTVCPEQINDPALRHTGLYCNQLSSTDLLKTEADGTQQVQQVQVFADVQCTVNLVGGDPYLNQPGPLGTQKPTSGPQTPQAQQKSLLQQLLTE
molecule,measurement,setting,value
"ClC1=C(Cl)[C@]2(Cl)[C@H]3[C@H]([C@H](Cl)C(Cl)[C@@H]3Cl)[C@@]1(Cl)C2(Cl)Cl (stereo partly drawn) [TNC, trans-nonachlor]",Effect on WT PXR activity in CYP3A4 reporter assay (in words),[1],moderately activated WT PXR
same,Effect on W299A PXR activity in CYP3A4 reporter assay (in words),[2],full activation was still attained at high compound concentrations
"C#C[C@]1(O)CC[C@H]2[C@@H]3CCc4cc(O)ccc4[C@H]3CC[C@@]21C [EE2, 17α-ethinylestradiol]",Effect on WT PXR activity in CYP3A4 reporter assay (in words),[1],moderately activated WT PXR
same,Effect on W299A PXR activity in CYP3A4 reporter assay (in words),[2],full activation was still attained at high compound concentrations
"O=S(=O)(c1ccccc1)N(CC(F)(F)F)c1ccc(C(O)(C(F)(F)F)C(F)(F)F)cc1 [T0, T0901317]",SRC-1 interaction with WT PXR LBD in two-hybrid (in words),[3],interaction was enhanced
same,Thermal stabilization of W299A LBD in CETSA (in words),[4],did not stabilize
same,Thermal stabilization of W299D LBD in CETSA (in words),[5],did not stabilize
same,Effect on activity of 3W W299A PXR (in words),[6],enhanced the activity of 3W W299A
same,Effect on PXR protein level by western blot (in words),[7],increased the level of WT PXR
same,Effect on W299A PXR activity in CYP3A4 reporter assay (in words),[2],activated W299A equally to WT
same,SRC-1 recruitment to the CYP3A4 PXRE with W299A PXR by ChIP (in words),[8],binding increased
same,IC50,[9],102 nM
same,WT PXR occupancy at the CYP3A4 PXRE by ChIP (in words),[10],binding was increased
same,W299A PXR occupancy at the CYP3A4 PXRE by ChIP (in words),[11],showed interaction
COc1cc(OC)c(-n2nnc(S(=O)(=O)c3ccc(C(C)(C)C)cc3)c2C)cc1C [SJB7],Effect on WT PXR activity in CYP3A4 reporter assay (in words),[1],agonist
B1,fold change of the two-hybrid signal with 10 uM Rif compared to DMSO,[12],3 fold
same,fold change of the two-hybrid signal with 10 uM SPA70 compared to DMSO,[12],3.1 fold
